Data taken from patent publication US20200054633A1 (priority 2017, published 2020).

Assays:
[1] = test system: acute uncomplicated seasonal influenza A; assay: Clinical study: time to resolution of the 7 primary influenza symptoms (Flu-iiQ); details: for Median (95% CI): untitled table, presumably time to symptom resolution
From the text: This study followed a randomized, double-blind, placebo-controlled, parallel-group, multicenter design.
Key secondary efficacy variable: Time to resolution of influenza symptoms after initiation of study drug. Resolution of influenza symptoms was defined as the first Flu iiQ™ recording of a successive series of 3 recordings (over 4 scheduled successive analysis time points, 1 missing time point is allowed) in which all symptom scores for each of the 3 assessments were at most mild for all 7 primary influenza symptoms (cough, sore throat, headache, nasal stuffiness, feverishness or chills, muscle or joint pain, and fatigue).

[2] = test system: acute uncomplicated seasonal influenza A; assay: Clinical study: nasal viral load by qRT-PCR (AUC, LS means, time to viral negativity); format: in vivo, human; details: for LS Means viral load (qRT-PCR) Day 3 / LS Means viral load (qRT-PCR) Day 4 / LS Means viral load (qRT-PCR) Day 6 / LS Means viral load (qRT-PCR) Day 8: log10 nasal viral load; for LS Means viral load (qRT-PCR) Day 3 / LS Means viral load (qRT-PCR) Day 4 / LS Means viral load (qRT-PCR) Day 6 / LS Means viral load (qRT-PCR) Day 8 / Change in AUC Viral Load (by qRT-PCR) Days 1 to 8 versus placebo / Time to influenza A negativity (qRT-PCR) Acceleration Factor: Full Analysis Set; for Time to influenza A negativity (qRT-PCR) Acceleration Factor: versus placebo, accelerated failure time model
[3] = Clinical study: study drug discontinuation and reasons; format: in vivo, human
From the text: Given the sizable difference between the FAS and the Safety Set, summary tables are provided for both analysis sets. Table 4 and Table 5 present a summary of subjects who completed or discontinued study drug and/or the study for the FAS and the Safety Set, respectively.

[4] = Cmpd (1) 300 mg + OST placebo, Full Analysis Set
[5] = Cmpd (1) 300 mg + OST placebo, Safety Set
[6] = Cmpd (1) 600 mg + OST placebo, Full Analysis Set
[7] = Cmpd (1) 600 mg + OST placebo, Safety Set

O=C(O)[C@H]1C2CCC(CC2)[C@@H]1Nc1nc(-c2c[nH]c3ncc(F)cc23)ncc1F [Compound (1), Pimodivir]
Median (95% CI) ([1]; Cmpd (1) 300 mg): 99.0 (71.5; | Median (95% CI) ([1]; Cmpd (1) 600 mg): 85.7 (55.3; | increase in time to resolution of the 7 primary influenza symptoms versus placebo ([1]; Compound (1) 300 mg bid, accelerated failure time model): 7% | LS Means viral load (qRT-PCR) Day 3 ([2]; Cmpd (1) 300 mg + OST placebo): 5.2 | LS Means viral load (qRT-PCR) Day 4 ([2]; Cmpd (1) 300 mg + OST placebo): 3.9 | LS Means viral load (qRT-PCR) Day 6 ([2]; Cmpd (1) 300 mg + OST placebo): 2.5 | LS Means viral load (qRT-PCR) Day 8 ([2]; Cmpd (1) 300 mg + OST placebo): 1.4 | LS Means viral load (qRT-PCR) Day 3 ([2]; Cmpd (1) 600 mg + OST placebo): 4.9 | LS Means viral load (qRT-PCR) Day 4 ([2]; Cmpd (1) 600 mg + OST placebo): 3.8 | LS Means viral load (qRT-PCR) Day 6 ([2]; Cmpd (1) 600 mg + OST placebo): 2.5 | LS Means viral load (qRT-PCR) Day 8 ([2]; Cmpd (1) 600 mg + OST placebo): 1.0 | reduction of time to viral negativity (qRT-PCR) versus placebo ([2]; Compound (1) 300 mg bid): 13% | Change in AUC Viral Load (by qRT-PCR) Days 1 to 8 versus placebo ([2]; Compound (1) 300 mg bid): −3.6 day*log10 copies/mL | reduction of time to viral negativity (qRT-PCR) versus placebo ([2]; Compound (1) 600 mg bid): 18% | Change in AUC Viral Load (by qRT-PCR) Days 1 to 8 versus placebo ([2]; Compound (1) 600 mg bid): −4.5 day*log10 copies/mL | effect on AUC of viral load (by qRT-PCR) over 7 days from start of dosing ([2]; Compound (1) treatment versus placebo): statistically significant and dose-dependent decrease in AUC of viral load | Time to influenza A negativity (qRT-PCR) Acceleration Factor ([2]; Cmpd (1) 300 mg + OST placebo): 0.87 | Time to influenza A negativity (qRT-PCR) Acceleration Factor ([2]; Cmpd (1) 600 mg + OST placebo): 0.82 | Drug termination: Discontinued [3, 4]: 20.7% | Drug termination: Discontinued, Adverse event [3, 4]: (10.3%) | Drug termination: Discontinued ([3]; Cmpd (1) 300 mg + OST placebo, Full Analysis Set, listed as Cmpd (1)): (20.7%) | Drug termination: Discontinued [3, 5]: 14 (18.9%) | Drug termination: Discontinued, Adverse event [3, 5]: 7 (9.5%) | Drug termination: Discontinued [3, 6]: 14.0% | Drug termination: Discontinued, Adverse event [3, 6]: (5.3%) | Drug termination: Discontinued ([3]; Cmpd (1) 600 mg + OST placebo, Full Analysis Set, listed as Cmpd (1)): (14.0%) | Drug termination: Discontinued [3, 7]: 12 (16.2%) | Drug termination: Discontinued, Adverse event [3, 7]: 3 (4.1%)
